The target of the test is human PAD4 (hPAD4) (Homo sapiens (Human), UniProt Q9UM07). Description: RFMS Human PAD4 Functional Assay 1. The class given is biochemical. The settings on record: RFMS assay 1; 5 nM hPAD4, 250 μM BAEE substrate, 50 μM calcium, 37° C. In a few lines:
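Citrullination product read by RapidFire triple-quad MRM against a modified-citrulline internal standard, after TCA stop and 30 min phenyl glyoxal step at 37 °C. Reaction: 250 μM BAEE, 5 nM human PAD4, 90 min at 37 °C, pH 7.5 HEPES buffer with 50 μM calcium and 5 μM TPEN, following 30 min compound–enzyme preincubation (max 50 μM).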

The record followed here is US12473304B2, “Heterocyclic PAD4 inhibitors” (BRISTOL-MYERS SQUIBB COMPANY, priority 2020, dated 2025).

Each structure is given as a SMILES string.

Chain of human PAD4 (hPAD4) (Q9UM07 whole entry): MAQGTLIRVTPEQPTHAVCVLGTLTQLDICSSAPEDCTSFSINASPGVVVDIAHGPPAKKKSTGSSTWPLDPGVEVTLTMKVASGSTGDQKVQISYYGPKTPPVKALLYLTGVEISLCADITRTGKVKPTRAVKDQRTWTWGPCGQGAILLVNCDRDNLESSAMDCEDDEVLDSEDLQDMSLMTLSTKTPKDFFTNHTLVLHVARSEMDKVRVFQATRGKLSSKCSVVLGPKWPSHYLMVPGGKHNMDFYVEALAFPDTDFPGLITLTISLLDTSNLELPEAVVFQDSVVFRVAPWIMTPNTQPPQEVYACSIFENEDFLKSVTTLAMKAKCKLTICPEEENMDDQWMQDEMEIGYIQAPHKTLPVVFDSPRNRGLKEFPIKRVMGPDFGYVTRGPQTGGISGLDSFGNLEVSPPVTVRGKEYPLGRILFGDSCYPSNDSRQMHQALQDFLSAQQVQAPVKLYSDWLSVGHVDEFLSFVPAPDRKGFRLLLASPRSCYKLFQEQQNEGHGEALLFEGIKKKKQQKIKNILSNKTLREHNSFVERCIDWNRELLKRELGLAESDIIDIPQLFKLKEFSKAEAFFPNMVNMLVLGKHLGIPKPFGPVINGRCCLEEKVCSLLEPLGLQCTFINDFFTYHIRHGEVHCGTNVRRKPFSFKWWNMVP

For the compound `COc1cc(C(=O)N2C[C@H](N)C[C@@H](F)C2)cn2nc(-c3cc4ccc(N5CCC(OC)CC5)cc4n3CC3CC3)c(C)c12` [Example 35, ((3R,5R)-3-Amino-5-fluoropiperidin-1-yl)(2-(1-(cyclopropylmethyl)-6-(4-methoxypiperidin-1-yl)-1H-indol-2-yl)-4-methoxy-3-methylpyrazolo[1,5-a]pyridin-6-yl)methanone], the 50% inhibitory concentration (IC50) (in general, the concentration that gives 50% inhibition) amounted to 139 nM.

For `Cc1c(-c2cc3ccnc(OCCn4ccnc4C)c3n2CC2CC2)nn2cc(C(=O)N3C[C@H](N)C[C@@H](F)C3)ccc12` [Example 611, ((3R,5R)-3-Amino-5-fluoropiperidin-1-yl)(2-(1-(cyclopropylmethyl)-7-(2-(2-methyl-1H-imidazol-1-yl)ethoxy)-1H-pyrrolo[2,3-c]pyridin-2-yl)-3-methylpyrazolo[1,5-a]pyridin-6-yl)methanone], the 50% inhibitory concentration (IC50) is 1560 nM. For `COC(=O)N(C)C1CCN(c2ccc3cc(-c4nn5cc(C(=O)N6CCC[C@@H](N)C6)ccc5c4C)n(CC4CC4)c3c2)CC1` [Example 358, Methyl N-[1-(2-{6-[(3R)-3-aminopiperidine-1-carbonyl]-3-methylpyrazolo[1,5-a]pyridin-2-yl}-1-(cyclopropylmethyl)-1H-indol-6-yl)piperidin-4-yl]-N-methylcarbamate] the value was 420 nM. For `Cc1c(-c2cc3cccc(OCC4CNC(=O)C4)c3n2CC2CC2)nn2cc(C(=O)N3CCC[C@@H](N)C3)cc(F)c12` (single isomer, unassigned) [Example 566] the value was 10 nM; for `Cc1c(-c2cc3cccnc3n2CC2CC2)nn2cc(C(=O)N3CC4CCC3[C@@H]4N)cc(F)c12` (stereo partly drawn) [Example 38, ((7R)-7-Amino-2-azabicyclo[2.2.1]heptan-2-yl)(2-(1-(cyclopropylmethyl)-1H-pyrrolo[2,3-b]pyridin-2-yl)-4-fluoro-3-methylpyrazolo[1,5-a]pyridin-6-yl)methanone], 158 nM. For the compound `Cc1c(-c2cc3ccnc(OCCn4cnnc4)c3n2CC2CC2)nn2cc(C(=O)N3CCC[C@@H](N)C3)ccc12` [Example 609, (R)-(2-(7-(2-(4H-1,2,4-Triazol-4-yl)ethoxy)-1-(cyclopropylmethyl)-1H-pyrrolo[2,3-c]pyridin-2-yl)-3-methylpyrazolo[1,5-a]pyridin-6-yl)(3-aminopiperidin-1-yl)methanone], the IC50 was found to be 40 nM.

For the compound `CNC(=O)c1ccc(-c2ccc3cc(-c4nn5cc(C(=O)N6CC7CCC6[C@@H]7N)ccc5c4C)n(CC4CC4)c3n2)cn1` (stereo partly drawn) [Example 307, 5-(2-{6-[(7R)-7-Amino-2-azabicyclo[2.2.1]heptane-2-carbonyl]-3-methylpyrazolo[1,5-a]pyridin-2-yl}-1-(cyclopropylmethyl)-1H-pyrrolo[2,3-b]pyridin-6-yl)-N-methylpyridine-2-carboxamide], the IC50 worked out at 70 nM. As to `Cc1c(-c2cc3cccc(OCC4CC(=O)N(C)C4)c3n2CC2CC2)nn2cc(C(=O)N3CCC[C@@H](N)C3)ccc12` (single isomer, unassigned) [Example 576], the half-inhibitory concentration (IC50) amounted to 190 nM. In the case of `COc1cc(C(=O)N2CC3CCC2[C@@H]3N)cn2nc(-c3cc4ccnc(OCC5CNC(=O)C5)c4n3CC3CC3)c(C)c12` (single isomer, unassigned; isomer 1) [Example 605], the IC50 turned out to be 70 nM. To `Cc1c(-c2cc3ccc(C(C)(O)C(F)(F)F)nc3n2CC2CC2)nn2cc(C(=O)N3CCC[C@@H](N)C3)ccc12` (mixture of isomers) [Example 382, 2-(2-{6-[(3R)-3-Aminopiperidine-1-carbonyl]-3-methylpyrazolo[1,5-a]pyridin-2-yl}-1-(cyclopropylmethyl)-1H-pyrrolo[2,3-b]pyridin-6-yl)-1,1,1-trifluoropropan-2-ol] belongs 150 nM. For `CC(=O)N1CC(c2cccc3cc(-c4nn5cc(C(=O)N6C[C@H](N)C[C@@H](F)C6)ccc5c4C)n(CC4CC4)c23)C1` [Example 548, 1-(3-(2-(6-((3R,5R)-3-Amino-5-fluoropiperidine-1-carbonyl)-3-methylpyrazolo[1,5-a]pyridin-2-yl)-1-(cyclopropylmethyl)-1H-indol-7-yl)azetidin-1-yl)ethan-1-one] the value was 170 nM.

Turning to `Cc1c(-c2cc3ccc(C4CC4)nc3n2CC2CC2)nn2cc(C(=O)N3CC4CCC3[C@@H]4N)ccc12` (stereo partly drawn) [Example 71, ((7R)-7-Amino-2-azabicyclo[2.2.1]heptan-2-yl)(2-(6-cyclopropyl-1-(cyclopropylmethyl)-1H-pyrrolo[2,3-b]pyridin-2-yl)-3-methylpyrazolo[1,5-a]pyridin-6-yl)methanone], the IC50 stood at 22 nM. To `Cc1c(-c2cc3ccc(-c4cccc5[nH]ncc45)nc3n2CC2CC2)nn2cc(C(=O)N3C[C@H](N)C[C@@H](F)C3)ccc12` [Example 322, (3R,5R)-1-{2-[1-(Cyclopropylmethyl)-6-(1H-indazol-4-yl)-1H-pyrrolo[2,3-b]pyridin-2-yl]-3-methylpyrazolo[1,5-a]pyridine-6-carbonyl}-5-fluoropiperidin-3-amine] belongs 500 nM; to `COC1CN(c2ccc3cc(-c4oc5cc(C(=O)N6CC7CCC6[C@@H]7N)ccc5c4C)n(CC4CC4)c3c2)C1` (stereo partly drawn) [Example 190, ((7R)-7-Amino-2-azabicyclo[2.2.1]heptan-2-yl)(2-(1-(cyclopropylmethyl)-6-(3-methoxyazetidin-1-yl)-1H-indol-2-yl)-3-methylbenzofuran-6-yl)methanone], 58 nM; to `Cc1c(-c2cc3ccc(-c4ccn5c(C)nnc5c4)cc3n2CC2CC2)nn2cc(C(=O)N3CC4CCC3[C@@H]4N)cc(F)c12` (stereo partly drawn) [Example 62, ((7R)-7-Amino-2-azabicyclo[2.2.1]heptan-2-yl)(2-(1-(cyclopropylmethyl)-6-(3-methyl-[1,2,4]triazolo[4,3-a]pyridin-7-yl)-1H-indol-2-yl)-4-fluoro-3-methylpyrazolo[1,5-a]pyridin-6-yl)methanone], 28 nM. With `COc1cc(C(=O)N2CC3CCC2[C@@H]3N)cn2nc(-c3cc4ccc(-c5ccc6c(c5)CNC6=O)nc4n3CC3CC3)c(C)c12` (stereo partly drawn) [Example 5, 5-(2-(6-((7R)-7-Amino-2-azabicyclo[2.2.1]-heptane-2-carbonyl)-4-methoxy-3-methylpyrazolo[1,5-a]pyridin-2-yl)-1-(cyclopropylmethyl)-1H-pyrrolo[2,3-b]pyridin-6-yl)isoindolin-1-one], the IC50 turned out to be 27 nM. To `COc1cc(C(=O)N2C[C@H](N)C[C@@H](F)C2)cn2nc(-c3cc4ccc(-c5cccc(CNS(C)(=O)=O)c5)cc4n3CC3CC3)c(C)c12` [Example 211, N-{[3-(2-{6-[(3R,5R)-3-Amino-5-fluoropiperidine-1-carbonyl]-4-methoxy-3-methylpyrazolo[1,5-a]pyridin-2-yl}-1-(cyclopropylmethyl)-1H-indol-6-yl)phenyl]methyl}methanesulfonamide] belongs 1050 nM; to `Cc1c(-c2cc3ccc(N4CCNCC4)cc3n2CC2CC2)oc2cc(C(=O)N3CC4CCC3[C@@H]4N)ccc12` (stereo partly drawn) [Example 192, ((7R)-7-Amino-2-azabicyclo[2.2.1]heptan-2-yl)(2-(1-(cyclopropylmethyl)-6-(piperazin-1-yl)-1H-indol-2-yl)-3-methylbenzofuran-6-yl)methanone], 93 nM. As for `COc1cc(C(=O)N2CCC[C@@H](N)C2)cn2nc(-c3cc4ccc(N5CC(N(C)S(C)(=O)=O)C5)cc4n3CC3CC3)c(C)c12` [Example 256, N-[1-(2-{6-[(3R)-3-Aminopiperidine-1-carbonyl]-4-methoxy-3-methylpyrazolo[1,5-a]pyridin-2-yl}-1-(cyclopropylmethyl)-1H-indol-6-yl)azetidin-3-yl]-N-methylmethanesulfonamide], the 50% inhibitory concentration (IC50) was determined as 330 nM. For `Cc1c(-c2cc3ccc(-c4ccccc4N4CCNC4=O)cc3n2CC2CC2)nn2cc(C(=O)N3CC4CCC3[C@@H]4N)ccc12` (stereo partly drawn) [Example 338, 1-[2-(2-{6-[(7R)-7-Amino-2-azabicyclo[2.2.1]heptane-2-carbonyl]-3-methylpyrazolo[1,5-a]pyridin-2-yl}-1-(cyclopropylmethyl)-1H-indol-6-yl)phenyl]imidazolidin-2-one] the value was 50 nM; for `COc1cc(C(=O)N2CC3CCC2[C@@H]3N)cn2nc(-c3cc4ccnc(OC[C@H]5CCC(=O)N5)c4n3CC3CC3)c(C)c12` (stereo partly drawn) [Example 604, (5R)-5-(((2-(6-((7R)-7-Amino-2-azabicyclo[2.2.1]heptane-2-carbonyl)-4-methoxy-3-methylpyrazolo[1,5-a]pyridin-2-yl)-1-(cyclopropylmethyl)-1H-pyrrolo[2,3-c]pyridin-7-yl)oxy)methyl)pyrrolidin-2-one], 30 nM. To `Cc1c(-c2cc3cccc(OCC4CNC(=O)C4)c3n2CC2CC2)nn2cc(C(=O)N3C[C@H](N)C[C@@H](F)C3)ccc12` (single isomer, unassigned) [Example 573] belongs 110 nM; to `COCC(=O)N1CCC(c2cccc3cc(-c4nn5cc(C(=O)N6C[C@H](N)C[C@@H](F)C6)cc(OC)c5c4C)n(CC4CC4)c23)CC1` [Example 405, 1-(4-(2-(6-((3R,5R)-3-Amino-5-fluoropiperidine-1-carbonyl)-4-methoxy-3-methylpyrazolo[1,5-a]pyridin-2-yl)-1-(cyclopropylmethyl)-1H-indol-7-yl)piperidin-1-yl)-2-methoxyethan-1-one], 20 nM; to `COc1cc(C(=O)N2C[C@H](N)C[C@@H](F)C2)cn2nc(-c3cc4cccc(OCC5CC(=O)N(C)C5)c4n3CC3CC3)c(C)c12` (single isomer, unassigned) [Example 554], 60 nM. To `Cc1c(-c2cc3ccc(-c4ccc5[nH]ncc5c4)nc3n2CC2CC2)nn2cc(C(=O)N3CC4CCC3[C@@H]4N)ccc12` (stereo partly drawn) [Example 300, (7R)-2-{2-[1-(Cyclopropylmethyl)-6-(1H-indazol-5-yl)-1H-pyrrolo[2,3-b]pyridin-2-yl]-3-methylpyrazolo[1,5-a]pyridine-6-carbonyl}-2-azabicyclo[2.2.1]heptan-7-amine] belongs 100 nM.
